# Test results published in patent publication US20220133884A1, “COMPOUNDS USEFUL AS ADJUVANTS” (MILLENNIUM PHARMACEUTICALS, INC., priority 2019, published 2022).
# How the values were obtained:
# [1] = test system: dendritic cells (CD11c+ cells); assay: Study 1: activation of dendritic cells in lymph nodes after subcutaneous injection (flow cytometry); format: in vivo, Balb/c mice; conditions: ~18 hours post subcutaneous injection near brachial LNs, relative to vehicle treated mice
# Experimental: (§1) Unless otherwise stated, immune cell profiling was performed using flow cytometry on a BD (Beckton Dickinson) LSRII Fortessa.
# (§2) The goal of this study was to investigate the in vivo effects of Compound I-263a alone or in combination with a TLR9 agonist (CpG) with respect to the recruitment and activation of innate immune cells at regional draining lymph nodes (LNs). On day 0 in the evening, eight to ten week old female Balb/c mice (Jackson Labs, Bar Harbor, Me.) were injected subcutaneously bilaterally close to the two brachial LNs (50 μL each side) with one of the formulations shown in Table 1 (n=5 mice per group). On day 1 (˜18 hours post injection) the mice were euthanized. The inflamed brachial LNs as well as the distal non-inflamed inguinal LNs were harvested from each mouse individually. Single cell suspensions were generated by homogenizing the LNs on a 70μ cell strainer using 3 mL syringe plungers, followed by wash with FACS staining buffer (BD Biosciences, Cat #554657). The cell pellet was re-suspended in 100 μL of FACS buffer for staining on a 96-well U-bottom tissue culture plate (Corning). Each sample was stained using the flow cytometry panel (see Table 2 below) of antibodies followed by acquisition and analysis on BD LSRII Fortessa. For positive controls, 1 drop of ultracomp beads (Invitrogen, Cat #01-2222-42) were stained with 1 μL of the respective antibodies.
# [2] = test system: T cells and NK cells; assay: Study 1: early lymphocyte activation marker CD69 on T cells and NK cells in lymph nodes (flow cytometry); format: in vivo, Balb/c mice; conditions: ~18 hours post subcutaneous injection, Compound I-263a 7.5 mg/kg, CpG 2.5 mg/kg
# Experimental: as §1, §2
# [3] = test system: B16F10-OVA tumors; assay: Study 3: prophylactic vaccination and B16F10-OVA tumor challenge; format: in vivo, C57BL/6 mice; conditions: SC pre-treatment Day -14 to Day -4, tumor challenge Day 0; Ovalbumin 100 ug QWx2, Compound I-263a 15 mg/kg BIWx2, poly (I:C) 50 ug BIWx2; FIG. 5A/5B
# Experimental: The goal of this study was to evaluate the prophylactic effects of OVA+Compound 1-263a vaccination in mice challenged with tumors expressing the OVA antigen (B16F10-OVA). The B16F10-OVA cell line was generated in-house by stable integration of the chicken ovalbumin gene into the Rosa26 locus. Eight to ten-week-old female C57BL/6 mice (Jackson Labs, Bar Harbor, Me.) were injected with one of the formulations shown in Table 5 subcutaneously (SC) near the nape. All mice were subsequently challenged on Day 0 with 0.3e6 B16F10-OVA tumor cells/mouse subcutaneously (n=16 mice/group, except group 5 (ovalbumin+Compound 1-263a) for which n=15). Tumor growth was measured every 2-3 days using digital calipers and tumor volume was calculated as: L×W×(W/2).
Molecule,"expression of marker CD86 on CD11c+ cells in the distal inguinal LNs ([1]; 7.5 mg/kg, FIG. 1b)","expression of marker CD40 on CD11c+ cells in the brachial LNs ([1]; Compound I-263a 7.5 mg/kg, CpG 2.5 mg/kg, FIG. 1a)","expression of marker CD86 on CD11c+ cells in the brachial LNs ([1]; Compound I-263a 7.5 mg/kg, CpG 2.5 mg/kg, FIG. 1b)",early lymphocyte activation marker CD69 on T cells in the brachial LNs ([2]; FIG. 2a),early lymphocyte activation marker CD69 on NK cells in the brachial LNs ([2]; FIG. 2b),growth of B16-F10 tumors expressing OVA (tumor protection) [3]
"Cc1sc(C(=O)c2cncnc2N[C@@H]2C[C@H](COS(N)(=O)=O)[C@@H](O)C2)cc1[C@@H]1NCCc2ccc(Cl)cc21 [Compound I-263a, [(1R,2S,4R)-4-{[5-({4-[(1R)-7-chloro-1,2,3,4-tetrahydroisoquinolin-1-yl]-5-methyl-2-thienyl}carbonyl)pyrimidin-4-yl]amino}-2-hydroxycyclopentyl]methyl sulfamate]",but not in the distal inguinal LNs,increases,increases,changes in the early lymphocyte activation marker CD69 were observed,changes in the early lymphocyte activation marker CD69 were observed,did not confer tumor protection
"OVA: chicken ovalbumin protein antigen, EndoFit Ovalbumin, InvivoGen (protein, UniProt P01012 2-386, looked up) Ovalbumin: GSIGAASMEFCFDVFKELKVHHANENIFYCPIAIMSALAMVYLGAKDSTRTQINKVVRFDKLPGFGDSIEAQCGTSVNVHSSLRDILNQITKPNDVYSFSLASRLYAEERYPILPEYLQCVKELYRGGLEPINFQTAADQARELINSWVESQTNGIIRNVLQPSSVDSQTAMVLVNAIVFKGLWEKAFKDEDTQAMPFRVTEQESKPVQMMYQIGLFRVASMASEKMKILELPFASGTMSMLVLLPDEVSGLEQLESIINFEKLTEWTSSNVMEERKIKVYLPRMKMEEKYNLTSVLMAMGITDVFSSSANLSGISSAESLKISQAVHAAHAEINEAGREVVGSAEAGVDAASVSEEFRADHPFLFCIKHIATNAVLFFGRCVSP",,,,,,did not confer tumor protection
